Structures can show the parent of a compound that is named as a salt.

Sequence of hNav1.7 (Q15858 other isoform, or with tags, fused parts or gaps): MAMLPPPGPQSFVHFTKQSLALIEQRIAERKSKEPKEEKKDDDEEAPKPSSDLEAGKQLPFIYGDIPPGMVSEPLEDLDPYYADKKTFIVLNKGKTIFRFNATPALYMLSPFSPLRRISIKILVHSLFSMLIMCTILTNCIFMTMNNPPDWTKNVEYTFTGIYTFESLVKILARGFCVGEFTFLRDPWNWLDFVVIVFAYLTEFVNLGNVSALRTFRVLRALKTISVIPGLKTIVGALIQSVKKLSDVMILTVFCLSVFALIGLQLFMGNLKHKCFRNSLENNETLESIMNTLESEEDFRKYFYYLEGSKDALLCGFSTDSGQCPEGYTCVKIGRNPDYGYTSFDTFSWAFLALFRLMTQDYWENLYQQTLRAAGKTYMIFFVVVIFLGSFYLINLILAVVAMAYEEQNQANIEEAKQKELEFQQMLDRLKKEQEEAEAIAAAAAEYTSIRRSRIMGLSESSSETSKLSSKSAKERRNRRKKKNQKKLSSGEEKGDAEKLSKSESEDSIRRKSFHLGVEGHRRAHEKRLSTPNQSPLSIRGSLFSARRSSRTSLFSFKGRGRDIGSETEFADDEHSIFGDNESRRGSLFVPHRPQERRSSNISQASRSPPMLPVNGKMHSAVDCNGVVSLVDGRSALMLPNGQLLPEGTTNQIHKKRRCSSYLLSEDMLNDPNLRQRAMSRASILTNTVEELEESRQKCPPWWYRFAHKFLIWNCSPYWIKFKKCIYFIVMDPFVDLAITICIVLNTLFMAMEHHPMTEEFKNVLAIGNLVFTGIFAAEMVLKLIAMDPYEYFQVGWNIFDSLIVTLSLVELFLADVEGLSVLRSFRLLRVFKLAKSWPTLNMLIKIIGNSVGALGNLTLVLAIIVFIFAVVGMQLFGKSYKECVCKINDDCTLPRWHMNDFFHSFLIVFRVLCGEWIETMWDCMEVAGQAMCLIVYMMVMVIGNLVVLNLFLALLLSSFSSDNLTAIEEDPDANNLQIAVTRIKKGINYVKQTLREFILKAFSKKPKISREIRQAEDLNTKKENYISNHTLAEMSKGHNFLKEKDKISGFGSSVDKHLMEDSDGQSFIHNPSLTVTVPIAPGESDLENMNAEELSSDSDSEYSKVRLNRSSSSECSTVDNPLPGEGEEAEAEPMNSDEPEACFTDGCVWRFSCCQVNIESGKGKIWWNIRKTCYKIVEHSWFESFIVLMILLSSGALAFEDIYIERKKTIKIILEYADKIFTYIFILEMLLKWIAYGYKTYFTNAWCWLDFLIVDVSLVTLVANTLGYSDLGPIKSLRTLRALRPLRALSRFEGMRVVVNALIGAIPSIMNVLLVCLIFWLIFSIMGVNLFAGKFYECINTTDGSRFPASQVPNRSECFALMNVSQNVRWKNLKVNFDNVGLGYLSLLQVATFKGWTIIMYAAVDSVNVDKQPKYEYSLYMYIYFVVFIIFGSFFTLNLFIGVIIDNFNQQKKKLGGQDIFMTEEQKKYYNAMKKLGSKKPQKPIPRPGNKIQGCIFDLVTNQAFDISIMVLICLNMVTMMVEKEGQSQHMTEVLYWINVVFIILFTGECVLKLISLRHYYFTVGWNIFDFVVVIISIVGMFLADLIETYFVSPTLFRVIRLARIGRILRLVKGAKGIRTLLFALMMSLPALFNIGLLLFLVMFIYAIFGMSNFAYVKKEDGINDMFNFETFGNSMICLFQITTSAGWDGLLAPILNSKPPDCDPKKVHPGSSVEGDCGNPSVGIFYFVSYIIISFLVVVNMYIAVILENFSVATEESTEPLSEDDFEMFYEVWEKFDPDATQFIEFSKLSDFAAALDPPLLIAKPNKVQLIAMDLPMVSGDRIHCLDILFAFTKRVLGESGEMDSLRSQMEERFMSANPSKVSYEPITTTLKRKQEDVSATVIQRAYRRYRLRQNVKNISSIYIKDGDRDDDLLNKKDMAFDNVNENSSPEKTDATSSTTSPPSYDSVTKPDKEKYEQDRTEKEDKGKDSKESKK

The experiment has as its target hNav1.7 (Homo sapiens (Human), UniProt Q15858). As to the kind of experiment: Patch voltage clamp electrophysiology (EP), Syncropatch 384PE, CHO cells stably expressing Nav1.7. The settings on record: holding potential −50 mV, 7.5 min compound incubation, read-out: EP_SP hNav1.7 EVO IC50. The format is cell-based. The source says:
Example 64c. Electrophysiological Assay (EP) (In Vitro Assay)
Patch voltage clamp electrophysiology allows for the direct measurement and quantification of block of voltage-gated sodium channels (NaV's), and allows the determination of the time- and voltage-dependence of block which has been interpreted as differential binding to the resting, open, and inactivated states of the sodium channel (Hille, B., Journal of General Physiology (1977), 69: 497-515).
The following voltage clamp electrophysiology studies are performed on representative compounds using cells heterologously expressing Nav1.7 or Nav1.5 channels. cDNAs for Nav1.7 (NM_002977) and Nav1.5 (AC137587) are stably expressed in Chinese Hamstr Ovary (CHO) cells and CHL (Chinese Hamster Lung) cells respectively. Sodium currents are measured in the whole-cell configuration using Syncropatch 384PE (Nanlon Technologies, Germany). 1NPC®-384 chips with custom medium resistance and single hole mode are used. Internal solution consists of (in mM): […], 10 CsCl, 20 EGTA, and 10 Hepes (pH adjusted to 7.2); and external solution contains (in mM): 60 NMDG, 80 NaCl, 4 KCl, 1 MgCl2, 2 CaCl2, 2 D-Glucose monohydrate, 10 Hepes (pH adjusted to 7.4 with NaOH).
After system flushing, testing compounds are dissolved in external solution containing 0.1% Pluronic F-127. The chip is moved into the measuring head and the instrument primes the chip with external and internal solutions. 10 μl cells are added to the chip from a cell hotel, and a negative pressure of −50 mBar is applied to form a seal. Following treatment with seal enhancer solution and wash-off with external solution, negative pressure of −250 mbar is applied for 1 second to achieve the whole-cell configuration, followed by three washing steps in external solution. 20 μl of compounds is added to 40 μl in each well (1:3 dilution of compounds), and after mixing, 20 μl is removed so the volume is retained at 40 ul. After approximately 13 minutes recordings, 20 μl/well of 2 uM TTX, or 333 uM Tetracaine (for […]) is added to achieve full block.
For voltage protocol, an holding potential of −50 mV is applied during the whole experiment. A depolarizing step is applied to −10 mV for 10 ms, followed by a hyperpolarization step to −150 mV for 20 ms to allow channel recovery from inactivation. A second depolarizing step is applied from −150 mV to −10 mV for 10 ms, where currents are measured to derive blocking effects of compounds. Inhibition is determined based on 7.5 min of compound incubation.
On the technique in general: In patch-clamp work, channel activity is measured electrically.
In general, IC50 refers to the midpoint of a concentration-inhibition curve. As to `Cc1nc(O[C@H]2CC[C@H](c3cccc(CC(F)(F)F)c3)C[C@@H]2N(C)C)ccc1S(=O)(=O)Nc1ccncn1` [Example 59, 6-(((1S,2S,4S)-2-(dimethyl-amino)-4-(3-(2,2,2-trifluoro-ethyl)phenyl)-cyclohexyl)-oxy)-2-methyl-N-(pyrimidin-4-yl)pyridine-3-sulfonamide], the concentration for half-maximal inhibition (IC50) was 0.942 nM.

Consider `Cc1ccc([C@H]2CC[C@H](Oc3ccc(S(=O)(=O)Nc4ccncn4)c(C)n3)[C@@H](N(C)C)C2)cc1C(F)(F)F` [Example 56, 6-(((1S,2S,4S)-2-(dimethyl-amino)-4-(4-methyl-3-(trifluoromethyl)phenyl)-cyclohexyl)oxy)-2-methyl-N-(pyrimidin-4-yl)pyridine-3-sulfonamide formate], for which the IC50 is 0.13 nM.

Regarding `CN(C)[C@H]1C[C@@H](c2cccc(SC(F)(F)F)c2)CC[C@@H]1Oc1ccc(S(=O)(=O)Nc2ccncn2)cn1` [Example 63, 6-(((1S,2S,4S)-2-(dimethy-lamino)-4-(3-((trifluoro-methyl)thio)phenyl)cyclohexyl)oxy)-N-(pyrimidin-4-yl) pyridine-3-sulfonamide], the IC50 came to 1.05 nM.

For `Cc1nc(O[C@H]2CC[C@H](c3ccc(Cl)c(C(F)(F)F)c3)C[C@@H]2N(C)C)ccc1S(=O)(=O)Nc1ccncn1` [Example 36, 6-(((1S,2S,4S)-4-(4-chloro-3-(trifluoromethyl)phenyl)-2-(dimethylamino)cyclohexyl)oxy)-2-methyl-N-(pyrimidin-4-yl)pyridine-3-sulfonamide], the IC50 was determined as 0.247 nM.

As to `CN(C)[C@H]1C[C@@H](c2cccc(C(F)(F)F)c2)CC[C@@H]1Nc1ccc(S(=O)(=O)Nc2ccncn2)nc1` [Example 5, 5-(((1S,2S,4S)-2-(Dimethylamino)-4-(3-(trifluoromethyl)phenyl)cyclohexyl)amino)-N-(pyrimidin-4-yl)pyridine-2-sulfonamide], the IC50 was found to be 8.33 nM.

With `CCN(CC)[C@H]1C[C@@H](c2cccc(C(F)(F)F)c2)CC[C@@H]1Oc1ccc(S(=O)(=O)Nc2ccncn2)c(C)n1` [Example 47, 6-(((1S,2S,4S)-2-(Diethylamino)-4-(3-(trifluoromethyl)phenyl)cyclohexyl)oxy)-2-methyl-N-(pyrimidin-4-yl)pyridine-3-sulfonamide], the IC50 is 1.73 nM.

Take `Cc1nc(O[C@H]2CC[C@H](c3cc(Cl)cc(C(F)(F)F)c3)C[C@@H]2N(C)C)ccc1S(=O)(=O)Nc1ccncn1` [Example 49, 6-(((1S,2S,4S)-4-(3-chloro-5-(trifluoromethyl)phenyl)-2-(dimethylamino)cyclohexyl)oxy)-2-methyl-N-(pyrimidin-4-yl)pyridine-3-sulfonamide]: the IC50 stood at 0.188 nM.

Take `O=S(=O)(Nc1ccncn1)c1ccc(O[C@H]2CC[C@H](c3cccc(OC(F)(F)F)c3)C[C@@H]2N2CCCC2)nc1` [Example 10, N-(pyrimidin-4-yl)-6-(((1S,2S,4S)-2-(pyrrolidin-1-yl)-4-(3-(trifluoromethoxy)phenyl)cyclohexyl)oxy)-pyridine-3-sulfonamide]: the IC50 was 5.62 nM.

With `Cc1nc(O[C@H]2CC[C@H](c3cc(Cl)ccc3Cl)C[C@@H]2N(C)C)ccc1S(=O)(=O)Nc1ccncn1` [Example 39, 6-(((1S,2S,4S)-4-(2,5-dichlorophenyl)-2-(dimethylamino)cyclohexyl)oxy)-2-methyl-N-(pyrimidin-4-yl)pyridine-3-sulfonamide formate], the IC50 is 0.645 nM.

For `Cc1nc(O[C@H]2CC[C@H](c3cccc(Cl)c3)C[C@@H]2N(C)C)ccc1S(=O)(=O)Nc1ccncn1` [Example 57, 6-(((1S,2S,4S)-4-(3-chloro-phenyl)-2-(dimethylamino)-cyclohexyl)oxy)-2-methyl-N-(pyrimidin-4-yl)pyridine-3-sulfonamide], the half-maximal inhibitory concentration (IC50) was determined as 0.919 nM.

As to `COc1cc(S(=O)(=O)Nc2ccncn2)cnc1O[C@H]1CC[C@H](c2cccc(C(F)(F)F)c2)C[C@@H]1N(C)C` [Example 61, 6-(((1S,2S,4S)-2-(dimethyl-amino)-4-(3-(trifluoromethyl)-phenyl)cyclohexyl)oxy)-5-methoxy-N-(pyrimidin-4-yl)pyridine-3-sulfonamide formate], the IC50 was determined as 10.7 nM.

As to `CCc1nc(O[C@H]2CC[C@H](c3cccc(C(F)(F)F)c3)C[C@@H]2N(C)C)ccc1S(=O)(=O)Nc1ccncn1` [Example 33, 6-(((1S,2S,4S)-2-(Dimethylamino)-4-(3-(trifluoromethyl)phenyl)cyclohexyl)oxy)-2-ethyl-N-(pyrimidin-4-yl)pyridine-3-sulfonamide], the IC50 came out at 16.3 nM.

In the case of `Cc1nc(O[C@H]2CC[C@H](c3cc(F)cc(C(F)(F)F)c3)C[C@@H]2N(C)C)ccc1S(=O)(=O)Nc1ccncn1` [Example 42, 6-(((1S,2S,4S)-2-(Dimethylamino)-4-(3-fluoro-5-(trifluoromethyl)phenyl)cyclohexyl)oxy)-2-methyl-N-(pyrimidin-4-yl)pyridine-3-sulfonamide], the concentration for half-maximal inhibition (IC50) is 0.646 nM.

For the molecule `Cc1nc(O[C@H]2CC[C@H](c3ccc(F)c(C(F)(F)F)c3)C[C@@H]2N(C)C)ccc1S(=O)(=O)Nc1ccncn1` [Example 45, 6-(((1S,2S,4S)-2-(Dimethylamino)-4-(4-fluoro-3-(trifluoromethyl)phenyl)cyclohexyl)oxy)-2-methyl-N-(pyrimidin-4-yl)pyridine-3-sulfonamide formate], the IC50 was determined as 0.473 nM.

`O=S(=O)(Nc1ccncn1)c1cnc(O[C@H]2CC[C@H](c3cccc(C(F)(F)F)c3)C[C@@H]2N2CCCC2)c(Cl)c1` [Example 18, 5-chloro-N-(pyrimidin-4-yl)-6-(((1S,2S,4S)-2-(pyrrolidin-1-yl)-4-(3-(trifluoromethyl)phenyl)-cyclohexyl)oxy)pyridine-3-sulfonamide]: the half-maximal inhibitory concentration (IC50) was found to be 0.388 nM.

For `Cc1nc(O[C@H]2CC[C@H](c3cccc(C(F)(F)F)c3F)C[C@@H]2N(C)C)ccc1S(=O)(=O)Nc1ccncn1` [Example 46, 6-(((1S,2S,4S)-2-(Dimethylamino)-4-(2-fluoro-3-(trifluoromethyl)phenyl)cyclohexyl)oxy)-2-methyl-N-(pyrimidin-4-yl)pyridine-3-sulfonamide formate], the IC50 stood at 0.917 nM.

Consider `Cc1nc(O[C@H]2CC[C@H](c3cc(C(F)(F)F)ccc3F)C[C@@H]2N(C)C)ccc1S(=O)(=O)Nc1ccncn1` [Example 43, 6-(((1S,2S,4S)-2-(Dimethylamino)-4-(2-fluoro-5-(trifluoromethyl)phenyl)cyclohexyl)oxy)-2-methyl-N-(pyrimidin-4-yl)pyridine-3-sulfonamide formate], for which the IC50 worked out at 0.687 nM.

In the case of `Cc1cc(O[C@H]2CC[C@H](c3cccc(C(F)(F)F)c3)C[C@@H]2N(C)C)ncc1S(=O)(=O)Nc1ccncn1` [Example 32, 6-(((1S,2S,4S)-2-(Dimethylamino)-4-(3-(trifluoromethyl)phenyl)cyclohexyl)oxy)-4-methyl-N-(pyrimidin-4-yl)pyridine-3-sulfonamide], the IC50 came to 37.1 nM.

As for `Cc1nc(O[C@H]2CC[C@H](c3cccc(OC(F)(F)F)c3)C[C@@H]2N2CCCC2)ccc1S(=O)(=O)Nc1ccncn1` [Example 30, 2-Methyl-N-(pyrimidin-4-yl)-6-(((1S,2S,4S)-2-(pyrrolidin-1-yl)-4-(3-(trifluoromethoxy)phenyl)-cyclohexyl)oxy)pyridine-3-sulfonamide], the IC50 is 1.07 nM.

On to `Cc1cc([C@H]2CC[C@H](Oc3ccc(S(=O)(=O)Nc4ccncn4)c(C)n3)[C@@H](N(C)C)C2)cc(C(F)(F)F)c1` [Example 58, 6-(((1S,2S,4S)-2-(dimethyl-amino)-4-(3-methyl-5-(trifluoromethyl)phenyl)-cyclohexyl)oxy)-2-methyl-N-(pyrimidin-4-yl)pyridine-3-sulfonamide], for which the IC50 was 0.351 nM.

Regarding `CN(C)[C@H]1C[C@@H](c2cccc(C(F)(F)F)c2)CC[C@@H]1Oc1ncc(S(=O)(=O)Nc2ccncn2)cc1C(F)(F)F` [Example 14, 6-(((1S,2S,4S)-2-(dimethylamino)-4-(3-(trifluoromethyl)phenyl)cyclohexyl)oxy)-N-(pyrimidin-4-yl)-5-(trifluoromethyl)pyridine-3-sulfonamide], the half-maximal inhibitory concentration (IC50) was 5.08 nM.

Consider `Cc1ccc(C(F)(F)F)cc1[C@H]1CC[C@H](Oc2ccc(S(=O)(=O)Nc3ccncn3)c(C)n2)[C@@H](N(C)C)C1` [Example 54, 6-(((1S,2S,4S)-2-(dimethyl-amino)-4-(2-methyl-5-(trifluoromethyl)phenyl)-cyclohexyl)oxy)-2-methyl-N-(pyrimidin-4-yl)pyridine-3-sulfonamide], for which the IC50 came out at 0.404 nM.

Source of the values: patent publication US20250115576A1, “THERAPEUTIC COMPOUNDS AND METHODS OF USE THEREOF” (Genentech, Inc., priority 2018, published 2025).
